Test: Solubility in water, visual, confirmed by HPLC assay of a saturated solution
Assay type: physicochemical
Conditions: thermodynamic from solid
Protocol: Solubility of the Nitrate
The visual solubility was confirmed by an HPLC assay of a saturated solution. Solubility: 6 mg/ml.

CN(CCOc1ccc(CC2SC(=O)NC2=O)cc1)c1ccccn1.O=[N+]([O-])O (stereo not shown) [Nitrate, 5-[4-[2-(N-methyl-N-(2-pyridyl)amino)ethoxy]benzyl]thiazolidine-2,4-dione nitrate]
solubility: 6000 µg/mL

Source: patent publication US20040029926A1 (priority 2000, published 2004)
